Assay results published in patent US9493478B2, “Fused ring compound containing furan or salt thereof and pharmaceutical composition comprising same” (YUHAN CORPORATION, priority 2012, dated 2016).

Tests used:
Format in all cases: biochemical
[1] = molecular target: PI3Kα (p110α/p85α)(h) (Homo sapiens, UniProt P42336); assay: Assay for phosphatidylinositol 3-kinase alpha (PI3Kα) activity, PI3K-HTRF kit; conditions: TR-FRET; enzyme 0.3625 μg/ml, 10 μM PIP2, 10 μM ATP
[2] = molecular target: PI3Kγ (p120γ)(h) (Homo sapiens, UniProt P48736); assay: Assay for phosphatidylinositol 3-kinase gamma (PI3Kγ) activity, PI3K-HTRF kit; conditions: TR-FRET; enzyme 1.45 μg/ml, 10 μM PIP2, 10 μM ATP
Outline: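 Recombinant PI3Kγ (1.45 μg/ml final) preincubated ~10 min with compound, then reacted with 10 μM PIP2 and 10 μM ATP for 90 min at room temperature. PIP3 detected by HTRF (biotin-PIP3/Eu-PH domain/APC), 665/620 nm ratio after 6 h; IC50 from inhibition relative to controls.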

[3] = molecular target: PI3Kδ (p110δ/p85α)(h) (Homo sapiens, UniProt O00329); assay: Assay for phosphatidylinositol 3-kinase delta (PI3Kδ) activity, PI3K-HTRF kit; conditions: TR-FRET; enzyme 0.725 μg/ml, 10 μM PIP2, 10 μM ATP
[4] = molecular target: PI3K β (p110β/p85α)(h) (Homo sapiens, UniProt P42338); assay: Assay for phosphatidylinositol 3-kinase beta (PI3Kβ) activity, PI3K-HTRF kit; conditions: TR-FRET; enzyme 0.725 μg/ml, 10 μM PIP2, 10 μM ATP
Sequence of PI3K β (p110β/p85α)(h) (P42338 whole entry): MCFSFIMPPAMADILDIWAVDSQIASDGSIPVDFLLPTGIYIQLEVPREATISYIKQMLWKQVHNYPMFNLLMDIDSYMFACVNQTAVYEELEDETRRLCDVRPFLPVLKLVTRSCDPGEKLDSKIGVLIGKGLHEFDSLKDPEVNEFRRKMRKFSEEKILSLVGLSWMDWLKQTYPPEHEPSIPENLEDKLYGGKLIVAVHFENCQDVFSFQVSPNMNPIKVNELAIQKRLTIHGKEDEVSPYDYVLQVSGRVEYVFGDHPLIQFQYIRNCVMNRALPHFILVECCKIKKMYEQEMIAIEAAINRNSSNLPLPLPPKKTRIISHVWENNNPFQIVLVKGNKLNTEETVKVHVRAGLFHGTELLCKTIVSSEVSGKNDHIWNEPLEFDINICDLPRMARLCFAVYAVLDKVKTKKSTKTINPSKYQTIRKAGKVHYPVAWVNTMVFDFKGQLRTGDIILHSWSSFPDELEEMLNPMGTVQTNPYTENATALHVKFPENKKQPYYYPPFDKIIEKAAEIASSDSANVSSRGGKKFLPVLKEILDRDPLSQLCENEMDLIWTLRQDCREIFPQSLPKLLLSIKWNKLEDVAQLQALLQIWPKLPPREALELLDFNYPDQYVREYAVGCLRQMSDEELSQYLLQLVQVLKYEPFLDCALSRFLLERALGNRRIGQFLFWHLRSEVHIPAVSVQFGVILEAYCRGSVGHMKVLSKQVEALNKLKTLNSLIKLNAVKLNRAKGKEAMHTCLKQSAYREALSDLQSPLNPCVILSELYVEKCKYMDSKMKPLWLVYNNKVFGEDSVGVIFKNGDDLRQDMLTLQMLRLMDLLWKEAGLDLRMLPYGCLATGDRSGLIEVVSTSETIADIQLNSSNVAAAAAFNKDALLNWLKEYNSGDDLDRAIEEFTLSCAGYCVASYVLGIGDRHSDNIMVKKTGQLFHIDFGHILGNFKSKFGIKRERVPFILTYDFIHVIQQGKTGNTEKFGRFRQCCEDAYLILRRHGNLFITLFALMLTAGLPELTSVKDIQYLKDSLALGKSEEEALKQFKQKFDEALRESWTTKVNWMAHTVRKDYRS
Sequence of PI3K β (p110β/p85α)(h) (P27986 whole entry partner): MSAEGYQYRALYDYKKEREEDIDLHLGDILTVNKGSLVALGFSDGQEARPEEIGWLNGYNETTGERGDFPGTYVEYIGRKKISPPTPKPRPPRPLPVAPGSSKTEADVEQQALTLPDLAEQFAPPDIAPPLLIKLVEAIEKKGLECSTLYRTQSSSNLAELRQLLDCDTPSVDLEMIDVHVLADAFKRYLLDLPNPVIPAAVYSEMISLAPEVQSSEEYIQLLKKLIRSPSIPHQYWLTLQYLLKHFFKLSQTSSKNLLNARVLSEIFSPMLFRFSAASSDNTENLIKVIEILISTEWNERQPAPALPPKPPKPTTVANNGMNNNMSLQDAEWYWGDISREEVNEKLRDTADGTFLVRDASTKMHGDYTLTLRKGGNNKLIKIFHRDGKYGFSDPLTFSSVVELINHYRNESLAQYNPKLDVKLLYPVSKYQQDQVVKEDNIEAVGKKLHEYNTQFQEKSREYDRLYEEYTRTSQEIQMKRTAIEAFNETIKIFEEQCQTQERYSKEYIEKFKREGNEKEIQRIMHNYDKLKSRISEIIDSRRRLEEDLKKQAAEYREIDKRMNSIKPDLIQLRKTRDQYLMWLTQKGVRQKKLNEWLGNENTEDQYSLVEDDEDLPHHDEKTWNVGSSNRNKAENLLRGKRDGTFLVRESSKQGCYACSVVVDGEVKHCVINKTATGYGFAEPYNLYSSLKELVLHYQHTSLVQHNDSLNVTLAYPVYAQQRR

Sequence of PI3Kγ (p120γ)(h) (P48736 whole entry, the tested form may be a part): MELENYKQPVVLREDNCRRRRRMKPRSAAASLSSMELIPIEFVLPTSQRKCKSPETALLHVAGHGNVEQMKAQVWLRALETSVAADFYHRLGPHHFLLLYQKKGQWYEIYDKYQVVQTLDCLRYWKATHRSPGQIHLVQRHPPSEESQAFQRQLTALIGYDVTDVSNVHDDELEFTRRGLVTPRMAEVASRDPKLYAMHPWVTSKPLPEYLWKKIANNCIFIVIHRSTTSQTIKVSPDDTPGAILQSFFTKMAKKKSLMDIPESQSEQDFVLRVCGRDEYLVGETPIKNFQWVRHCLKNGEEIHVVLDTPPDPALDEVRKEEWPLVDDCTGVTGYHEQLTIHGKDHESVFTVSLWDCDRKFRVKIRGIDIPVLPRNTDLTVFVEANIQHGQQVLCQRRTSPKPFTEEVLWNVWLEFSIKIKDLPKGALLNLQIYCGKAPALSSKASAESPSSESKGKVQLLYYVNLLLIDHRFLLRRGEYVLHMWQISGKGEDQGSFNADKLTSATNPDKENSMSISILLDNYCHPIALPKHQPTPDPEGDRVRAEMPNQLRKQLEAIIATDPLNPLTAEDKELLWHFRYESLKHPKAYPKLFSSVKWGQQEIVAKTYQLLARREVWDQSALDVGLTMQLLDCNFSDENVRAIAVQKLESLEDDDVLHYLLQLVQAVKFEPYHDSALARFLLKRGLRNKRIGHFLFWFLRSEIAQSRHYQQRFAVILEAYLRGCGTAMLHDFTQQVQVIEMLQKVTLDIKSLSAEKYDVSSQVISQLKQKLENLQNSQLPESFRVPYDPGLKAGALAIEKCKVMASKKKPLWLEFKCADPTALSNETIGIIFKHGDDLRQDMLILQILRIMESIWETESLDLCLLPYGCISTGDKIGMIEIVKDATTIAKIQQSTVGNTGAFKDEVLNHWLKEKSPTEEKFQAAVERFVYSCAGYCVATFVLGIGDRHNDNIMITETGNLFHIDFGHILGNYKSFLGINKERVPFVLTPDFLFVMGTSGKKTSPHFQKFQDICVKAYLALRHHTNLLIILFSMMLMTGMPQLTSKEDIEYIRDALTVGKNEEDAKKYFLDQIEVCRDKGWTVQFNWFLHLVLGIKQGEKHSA
Sequence of PI3Kα (p110α/p85α)(h) (P42336 whole entry): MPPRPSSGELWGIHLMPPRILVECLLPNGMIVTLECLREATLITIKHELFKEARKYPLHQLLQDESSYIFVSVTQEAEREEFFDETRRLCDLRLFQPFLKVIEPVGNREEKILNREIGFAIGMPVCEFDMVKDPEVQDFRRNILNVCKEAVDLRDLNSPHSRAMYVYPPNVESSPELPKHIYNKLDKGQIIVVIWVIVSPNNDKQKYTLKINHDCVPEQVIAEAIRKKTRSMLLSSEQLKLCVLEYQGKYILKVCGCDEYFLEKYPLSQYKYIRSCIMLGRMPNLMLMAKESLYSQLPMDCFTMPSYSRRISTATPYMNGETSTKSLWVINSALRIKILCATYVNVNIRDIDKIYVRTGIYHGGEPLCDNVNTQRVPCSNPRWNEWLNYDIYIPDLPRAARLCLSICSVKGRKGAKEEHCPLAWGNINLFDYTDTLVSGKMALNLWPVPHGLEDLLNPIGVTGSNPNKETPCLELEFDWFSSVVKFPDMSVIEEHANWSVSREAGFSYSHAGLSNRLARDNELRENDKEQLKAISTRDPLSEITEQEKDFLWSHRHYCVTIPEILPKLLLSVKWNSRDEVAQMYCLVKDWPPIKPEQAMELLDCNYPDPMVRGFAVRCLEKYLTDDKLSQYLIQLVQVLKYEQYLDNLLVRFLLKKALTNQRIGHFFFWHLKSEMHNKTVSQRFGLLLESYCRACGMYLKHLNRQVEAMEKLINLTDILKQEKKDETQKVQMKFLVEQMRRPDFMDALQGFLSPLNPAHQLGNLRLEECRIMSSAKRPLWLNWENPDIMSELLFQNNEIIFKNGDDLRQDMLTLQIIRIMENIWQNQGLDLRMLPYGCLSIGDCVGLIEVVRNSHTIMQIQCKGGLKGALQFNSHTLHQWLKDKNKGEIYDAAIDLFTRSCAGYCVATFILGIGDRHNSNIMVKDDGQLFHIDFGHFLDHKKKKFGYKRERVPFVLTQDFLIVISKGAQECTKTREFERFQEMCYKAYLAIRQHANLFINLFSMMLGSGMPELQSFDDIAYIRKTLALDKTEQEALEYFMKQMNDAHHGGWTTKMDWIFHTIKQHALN
Sequence of PI3Kα (p110α/p85α)(h) (P27986 whole entry partner): as the sequence (P27986 whole entry partner) above
Sequence of PI3Kδ (p110δ/p85α)(h) (O00329 whole entry): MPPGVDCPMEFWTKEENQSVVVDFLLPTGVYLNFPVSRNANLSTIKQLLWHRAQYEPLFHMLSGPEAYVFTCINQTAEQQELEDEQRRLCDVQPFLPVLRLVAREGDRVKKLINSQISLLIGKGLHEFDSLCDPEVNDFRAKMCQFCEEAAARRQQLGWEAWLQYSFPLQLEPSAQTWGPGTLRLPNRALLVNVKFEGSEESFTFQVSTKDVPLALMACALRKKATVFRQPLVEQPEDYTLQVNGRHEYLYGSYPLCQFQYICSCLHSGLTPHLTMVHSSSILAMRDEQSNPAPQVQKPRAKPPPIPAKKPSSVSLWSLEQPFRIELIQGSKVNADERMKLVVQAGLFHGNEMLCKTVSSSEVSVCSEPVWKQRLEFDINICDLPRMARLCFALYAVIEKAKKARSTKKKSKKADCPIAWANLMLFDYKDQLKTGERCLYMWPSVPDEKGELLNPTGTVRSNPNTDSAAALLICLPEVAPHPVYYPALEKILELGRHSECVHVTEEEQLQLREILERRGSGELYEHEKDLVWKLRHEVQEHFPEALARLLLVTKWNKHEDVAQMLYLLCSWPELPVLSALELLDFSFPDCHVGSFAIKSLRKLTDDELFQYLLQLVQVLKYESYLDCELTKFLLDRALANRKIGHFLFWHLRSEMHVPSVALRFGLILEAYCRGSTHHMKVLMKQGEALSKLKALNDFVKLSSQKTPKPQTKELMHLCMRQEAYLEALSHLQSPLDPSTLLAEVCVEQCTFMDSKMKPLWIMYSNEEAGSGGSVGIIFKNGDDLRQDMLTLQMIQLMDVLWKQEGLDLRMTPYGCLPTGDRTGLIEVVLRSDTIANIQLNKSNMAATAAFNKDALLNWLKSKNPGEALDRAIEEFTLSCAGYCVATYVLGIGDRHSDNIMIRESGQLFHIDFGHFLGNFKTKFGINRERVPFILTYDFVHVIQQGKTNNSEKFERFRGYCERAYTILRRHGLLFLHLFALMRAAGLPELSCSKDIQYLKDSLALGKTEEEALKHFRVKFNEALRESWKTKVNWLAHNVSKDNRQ
Sequence of PI3Kδ (p110δ/p85α)(h) (P27986 whole entry partner): as the sequence (P27986 whole entry partner) above

SMILES	IC50 [1]	IC50 [2]	IC50 [3]	IC50 [4]
COc1ccc(C#Cc2cncc3cc(/C=C4\SC(=O)NC4=O)oc23)cc1 [Example 437, (Z)-5-([7-{(4-Methoxyphenyl)ethynyl}furo[3,2-c]pyridin-2-yl]methylene)thiazolidine-2,4-dione]	8 nM	9 nM	> 10000 nM	> 10000 nM
COC(=O)c1cccc(C#Cc2cncc3cc(/C=C4\SC(=O)NC4=O)oc23)c1 [Example 542, (Z)-Methyl 3-([2-{(2,4-dioxothiazolidin-5-ylidene)methyl}furo[3,2-c]pyridin-7-yl]ethynyl)benzoate]	3 nM	24 nM	1270 nM	> 10000 nM
COc1ccc(-c2cncc3cc(/C=C4\SC(=O)NC4=O)oc23)cn1 [Example 30, (Z)-5-[{7-(6-Methoxypyridin-3-yl)furo[3,2-c]pyridin-2-yl}methylene]thiazolidine-2,4-dione]	40 nM	6 nM	460 nM	1370 nM
O=C1NC(=O)/C(=C/c2cc3cncc(C#Cc4ccccc4)c3o2)S1 [Example 125, (Z)-5-[{7-(Phenylethynyl)furo[3,2-c]pyridin-2-yl}methylene]thiazolidine-2,4-dione]	58 nM	12 nM	> 10000 nM	> 10000 nM
COc1ccc(-c2cncc3cc(/C=C4\SC(=O)NC4=O)oc23)cc1C(F)(F)F [Example 90, (Z)-5-([7-{4-Methoxy-3-(trifluoromethyl)phenyl}furo[3,2-c]pyridin-2-yl]methylene)thiazolidine-2,4-dione]	3 nM	5 nM	6250 nM	3570 nM
Cc1ccccc1C#Cc1cncc2cc(/C=C3\SC(=S)NC3=O)oc12 [Example 498, (Z)-2-Thioxo-5-[{7-(o-tolylethynyl)furo[3,2-c]pyridin-2-yl}methylene]thiazolidin-4-one]	2 nM	7 nM	618 nM	2270 nM
COc1ccc(-c2cncc3cc(/C=C4\SC(=O)NC4=O)oc23)cc1OC [Example 33, (Z)-5-[{7-(3,4-Dimethoxyphenyl)furo[3,2-c]pyridin-2-yl}methylene]thiazolidine-2,4-dione]	8 nM	9 nM	37 nM	77 nM
O=C1NC(=S)S/C1=C\c1cc2cncc(-c3cc(Cl)c(S(=O)(=O)N4CCOCC4)c(Cl)c3)c2o1 [Example 343, (Z)-5-([7-{3,5-Dichloro-4-(morpholinosulfonyl)phenyl}furo[3,2-c]pyridin-2-yl]methylene)-2-thioxothiazolidin-4-one]	19 nM	4 nM	53 nM	> 10000 nM
Cc1cc(-c2cncc3cc(/C=C4\SC(=S)NC4=O)oc23)cnc1F [Example 195, (Z)-5-[7-(6-Fluoro-5-methylpyridin-3-yl)-furo[3,2-c]pyridin-2-ylmethylene]-2-thioxothiazolidin-4-one]	2 nM	3 nM	1900 nM	156 nM
O=C1NC(=O)/C(=C/c2cc3cncc(-c4cccc(NS(=O)(=O)c5ccccc5)c4)c3o2)S1 [Example 141, (Z)—N-(3-[2-{(2,4-Dioxothiazolidin-5-ylidene)methyl}furo[3,2-c]pyridin-7-yl]phenyl)benzenesulfonamide]	21 nM	108 nM	51 nM	23 nM
O=C1NC(=O)/C(=C/c2cc3cncc(-c4ccc5c(c4)OCO5)c3o2)S1 [Example 36, (Z)-5-[{7-(Benzo[d][1,3]dioxol-5-yl)furo[3,2-c]pyridin-2-yl}methylene]thiazolidine-2,4-dione]	86 nM	154 nM	> 10000 nM	14 nM
COc1ccc(NC(=O)c2cncc3cc(/C=C4\SC(=S)NC4=O)oc23)cc1 [Example 425, (Z)—N-(4-Methoxyphenyl)-2-{(4-oxo-2-thioxothiazolidin-5-ylidene)methyl}furo[3,2-c]pyridine-7-carboxamide]	11 nM	51 nM	8330 nM	1140 nM
CN1CCN(Cc2ccc(-c3cncc4cc(/C=C5\SC(=O)NC5=O)oc34)cc2)CC1 [Example 134, (Z)-5-{(7-[4-{(4-Methylpiperazin-1-yl)methyl}phenyl]furo[3,2-c]pyridin-2-yl)methylene}thiazolidine-2,4-dione]	95 nM	344 nM	54 nM	> 1000 nM
CC(C)c1ccccc1C#Cc1cncc2cc(/C=C3\SC(=S)NC3=O)oc12 [Example 554, (Z)-5-([7-{(2-Isopropylphenyl)ethynyl}furo[3,2-c]pyridin-2-yl]methylene)-2-thioxothiazolidin-4-one]	67 nM	78 nM	> 10000 nM	8620 nM
COc1ccc(C#Cc2cncc3cc(/C=C4\SC(=S)NC4=O)oc23)cc1OC [Example 512, (Z)-5-([7-{(3,4-Dimethoxyphenyl)ethynyl}furo[3,2-c]pyridin-2-yl]methylene)-2-thioxothiazolidin-4-one]	2 nM	17 nM	73 nM	82 nM
O=C1NC(=O)/C(=C/c2cc3cncc(-c4cc5ccccc5s4)c3o2)S1 [Example 14, (Z)-5-[{7-(Benzo[b]thiophen-2-yl)furo[3,2-c]pyridin-2-yl}methylene]thiazolidine-2,4-dione]	6 nM	29 nM	149 nM	> 10000 nM
COc1ncc(-c2cncc3cc(/C=C4\SC(=S)NC4=O)oc23)cc1C#N [Example 328, (Z)-2-Methoxy-5-[2-{(4-oxo-2-thioxothiazolidin-5-ylidene)methyl}furo[3,2-c]pyridin-7-yl]nicotinonitrile]	15 nM	56 nM	> 10000 nM	630 nM
O=C1NC(=O)/C(=C/c2cc3cncc(-c4ccc(F)cc4F)c3o2)S1 [Example 2, (Z)-5-[{7-(2,4-Difluorophenyl)furo[3,2-c]pyridin-2-yl}methylene]thiazolidine-2,4-dione]	35 nM	654 nM	117 nM	208 nM
COc1cc(-c2cncc3cc(/C=C4\SC(=S)NC4=O)oc23)cc(Cl)c1O [Example 217, (Z)-5-[{7-(3-Chloro-4-hydroxy-5-methoxyphenyl)furo[3,2-c]pyridin-2-yl}-methylene]-2-thioxothiazolidin-4-one]	1 nM	3 nM	563 nM	77 nM
O=C1NC(=S)S/C1=C\c1cc2cncc(C(=O)NCc3ccc(Cl)cc3)c2o1 [Example 427, (Z)—N-(4-Chlorobenzyl)-2-{(4-oxo-2-thioxothiazolidin-5-ylidene)methyl}furo[3,2-c]pyridine-7-carboxamide]	62 nM	134 nM	1170 nM	250 nM
COc1cc(C#Cc2cncc3cc(/C=C4\SC(=O)NC4=O)oc23)cc(OC)c1 [Example 450, (Z)-5-([7-{(3,5-Dimethoxyphenyl)ethynyl}furo[3,2-c]pyridin-2-yl]methylene)thiazolidine-2,4-dione]	8 nM	13 nM	> 10000 nM	4650 nM
CNS(=O)(=O)c1ccc(-c2cncc3cc(/C=C4\SC(=O)NC4=O)oc23)cc1F [Example 279, (Z)-4-[2-{(2,4-Dioxothiazolidin-5-ylidene)methyl}furo[3,2-c]pyridin-7-yl]-2-fluoro-N-methylbenzenesulfonamide]	40 nM	17 nM	747 nM	480 nM
CC(C)NS(=O)(=O)c1c(Cl)cc(-c2cncc3cc(/C=C4\SC(=S)NC4=O)oc23)cc1Cl [Example 345, (Z)-2,6-Dichloro-N-isopropyl-4-[2-{(4-oxo-2-thioxothiazolidin-5-ylidene)methyl}furo[3,2-c]pyridin-7-yl]benzenesulfonamide]	11 nM	4 nM	89 nM	3860 nM
CN(C)S(=O)(=O)c1ccc(-c2cncc3cc(/C=C4\SC(=S)NC4=O)oc23)cc1F [Example 330, (Z)-2-Fluoro-N,N-dimethyl-4-[2-{(4-oxo-2-thioxothiazolidin-5-ylidene)methyl}furo[3,2-c]pyridin-7-yl]benzenesulfonamide]	24 nM	12 nM	> 10000 nM	> 10000 nM
CCOC(C#Cc1cncc2cc(/C=C3\SC(=S)NC3=O)oc12)OCC [Example 483, (Z)-5-[{7-(3,3-Diethoxypropyn-1-yl)furo[3,2-c]pyridin-2-yl}methylene]-2-thioxothiazolidin-4-one]	23 nM	33 nM	113 nM	184 nM
O=C1NC(=O)/C(=C/c2cc3cncc(-c4ccc(O)nc4)c3o2)S1 [Example 11, (Z)-5-[{7-(6-Hydroxypyridin-3-yl)furo[3,2-c]pyridin-2-yl}methylene]thiazolidine-2,4-dione]	8 nM	15 nM	168 nM	48 nM
CN(C)S(=O)(=O)c1ccc(C#Cc2cncc3cc(/C=C4\SC(=S)NC4=O)oc23)cc1 [Example 571, (Z)—N,N-Dimethyl-4-([2-{(4-oxo-2-thioxothiazolidin-5-ylidene)methyl}furo[3,2-c]pyridin-7-yl]ethynyl)benzenesulfonamide]	1 nM	15 nM	78 nM	2410 nM
